The supplement of paper PMC10307832

Key:
Test in all cases: relative viability (nuclei count vs DMSO), 5 days (fraction); higher = more cells survive
Ibrutinib + Navitoclax = compound: C=CC(=O)N1CCC[C@@H](n2nc(-c3ccc(Oc4ccccc4)cc3)c3c(N)ncnc32)C1 [Ibrutinib] + CC1(C)CCC(c2ccc(Cl)cc2)=C(CN2CCN(c3ccc(C(=O)NS(=O)(=O)c4ccc(N[C@H](CCN5CCOCC5)CSc5ccccc5)c(S(=O)(=O)C(F)(F)F)c4)cc3)CC2)C1 [Navitoclax] (partner 0.5 µM)
Outline: (§1)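 A single step with final 0.05% Triton X-100, 1% formaldehyde and 1 ug/ml Hoechst fixed the cells and stained nuclei 5 days after treatment. Lung cancer cell lines in 1536-well plates had been treated by pin tool the day after seeding with one drug alone or a fixed anchor-drug dose plus five library-drug doses (not always all listed) in √10 steps, and nuclei were counted on 4× images. Relative viability is the ratio of nuclei in treated wells to nuclei in vehicle wells, taken as the median of duplicate plates.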

Ibrutinib + Alpelisib = compound: C=CC(=O)N1CCC[C@@H](n2nc(-c3ccc(Oc4ccccc4)cc3)c3c(N)ncnc32)C1 [Ibrutinib] + Cc1nc(NC(=O)N2CCC[C@H]2C(N)=O)sc1-c1ccnc(C(C)(C)C(F)(F)F)c1 [Alpelisib] (partner 2 µM)
Outline: as §1

BMX-IN-1 + Olaparib = compound: C=CC(=O)Nc1cc(-n2c(=O)ccc3cnc4ccc(-c5ccc(NS(C)(=O)=O)cc5)cc4c32)ccc1C [BMX-IN-1] + O=C(c1cc(Cc2n[nH]c(=O)c3ccccc23)ccc1F)N1CCN(C(=O)C2CC2)CC1 [Olaparib] (partner 8 µM)
Outline: as §1

BMX-IN-1 + Vorinostat = compound: C=CC(=O)Nc1cc(-n2c(=O)ccc3cnc4ccc(-c5ccc(NS(C)(=O)=O)cc5)cc4c32)ccc1C [BMX-IN-1] + O=C(CCCCCCC(=O)Nc1ccccc1)NO [Vorinostat] (partner 1 µM)
Outline: as §1

| Cell Line | relative viability (Ibrutinib + Navitoclax; first compound 0.005 µM) | relative viability (Ibrutinib + Navitoclax; first compound 0.01581 µM) | relative viability (Ibrutinib + Navitoclax; first compound 0.05 µM) | relative viability (Ibrutinib + Navitoclax; first compound 0.1581 µM) | relative viability (Ibrutinib + Navitoclax; first compound 0.5 µM) | relative viability (Ibrutinib + Alpelisib; first compound 0.005 µM) | relative viability (Ibrutinib + Alpelisib; first compound 0.01581 µM) | relative viability (Ibrutinib + Alpelisib; first compound 0.05 µM) | relative viability (Ibrutinib + Alpelisib; first compound 0.1581 µM) | relative viability (Ibrutinib + Alpelisib; first compound 0.5 µM) | relative viability (BMX-IN-1 + Olaparib; first compound 0.02 µM) | relative viability (BMX-IN-1 + Olaparib; first compound 0.2 µM) | relative viability (BMX-IN-1 + Olaparib; first compound 0.6325 µM) | relative viability (BMX-IN-1 + Olaparib; first compound 2 µM) | relative viability (BMX-IN-1 + Vorinostat; first compound 0.02 µM) | relative viability (BMX-IN-1 + Vorinostat; first compound 0.2 µM) | relative viability (BMX-IN-1 + Vorinostat; first compound 0.6325 µM) | relative viability (BMX-IN-1 + Vorinostat; first compound 2 µM) |
| --- | --- | --- | --- | --- | --- | --- | --- | --- | --- | --- | --- | --- | --- | --- | --- | --- | --- | --- |
| COR-L 105 | 0.548 | 0.74 | 0.625 | 0.681 | 0.385 | 0.899 | 0.762 | 0.866 | 1.11 | 0.43 | 0.735 | 0.689 | 0.791 | 0.641 | 0.943 | 0.886 | 0.996 | 0.716 |
| LXF-289 | 1.02 | 0.895 | 0.956 | 0.97 | 0.917 | – | 1.03 | – | – | 0.908 | 1.32 | 1.19 | 1.12 | 1.14 | 0.824 | 0.876 | 0.912 | 0.882 |
| HARA | 1.17 | 1.1 | 1.12 | 1.15 | 0.791 | 0.903 | 0.763 | 0.681 | 0.974 | 0.332 | 1.01 | 0.859 | 0.936 | 0.734 | 0.507 | 0.549 | 0.446 | 0.506 |
| NCI-H1975 | 1.04 | 1.14 | 1.08 | 1.09 | 0.637 | 0.594 | 0.418 | 0.475 | 0.634 | 0.212 | 0.837 | 1.02 | 0.853 | 0.841 | 0.707 | 0.754 | 0.737 | 0.703 |
| UMC-11 | 0.308 | 0.305 | 0.292 | 0.298 | 0.374 | 0.957 | 1.01 | 0.958 | 1.01 | 0.964 | 0.402 | 0.389 | 0.364 | 0.364 | 0.343 | 0.417 | 0.336 | 0.332 |
| NCI-H2023 | 1.02 | 0.919 | 0.884 | 1.07 | 0.871 | 0.567 | 0.574 | 0.492 | 0.66 | 0.568 | 0.516 | 0.655 | 0.47 | 0.489 | 0.726 | 0.742 | 0.654 | 0.105 |
| NCI-H23 | 0.853 | 0.886 | 0.771 | 0.787 | 0.97 | 0.514 | 0.695 | 0.566 | 0.76 | 0.6 | 0.304 | 0.415 | 0.312 | 0.229 | 0.654 | 0.728 | 0.602 | 0.564 |
| IA-LM | 0.768 | 0.853 | 0.79 | 0.79 | 0.951 | 0.826 | 0.732 | 0.682 | 0.658 | 1 | 0.871 | 0.843 | 0.938 | 0.94 | 0.797 | 0.807 | 1.03 | 0.722 |
| CAL-12T | – | 1.16 | 1.33 | 1.37 | 0.951 | – | 0.831 | 1.14 | 1.18 | 0.698 | 0.822 | 0.71 | 0.695 | 0.759 | 1.11 | 0.951 | 0.756 | 0.812 |
| LCLC-97TM1 | 0.486 | 0.561 | 0.474 | 0.398 | 0.377 | 0.241 | 0.3 | 0.335 | 0.269 | 0.255 | 0.383 | 0.597 | 0.413 | 0.367 | 0.724 | 1.08 | 1.04 | 0.842 |
| NCI-H1944 | 0.902 | 0.985 | 0.811 | 0.969 | 0.689 | 0.659 | 0.685 | 0.784 | 0.755 | 0.521 | 0.439 | 0.414 | 0.396 | 0.435 | 0.519 | 0.659 | 0.598 | 0.578 |
| NCI-H1915 | – | 0.767 | 0.799 | 0.793 | 0.795 | – | 1 | 1.06 | 1.07 | 1.05 | 0.267 | 0.27 | 0.263 | 0.246 | 0.576 | 0.531 | 0.564 | 0.53 |
| BEN | 0.0796 | 0.0705 | 0.0699 | 0.0622 | 0.0639 | 0.785 | 0.906 | 0.944 | 0.891 | 1.06 | 1.26 | 1.02 | 1.05 | 1.15 | 0.621 | 0.517 | 0.585 | 0.535 |
| H3255 | 0.539 | 0.511 | 0.226 | 0.425 | 0.157 | 0.555 | 0.699 | 0.474 | 1.05 | 0.214 | 0.584 | 0.588 | 0.548 | 0.628 | 0.787 | 0.812 | 0.902 | 0.76 |
| NCI-H1395 | 1.07 | – | 1.15 | 1.54 | 1.17 | 0.997 | 0.988 | 1.35 | 1.16 | 0.997 | 0.433 | 0.45 | 0.452 | 0.45 | 0.764 | 0.708 | 0.942 | 0.746 |
| NCI-H1437 | 1.14 | – | 1.11 | 1.13 | 1.14 | 0.958 | 0.937 | 1.01 | 0.988 | 1.03 | 0.662 | 0.647 | 0.692 | 0.664 | 0.964 | 0.866 | 0.896 | 0.949 |
| NCI-H1755 | 0.988 | 1.02 | – | 1.09 | 0.952 | 0.939 | 0.893 | 1.03 | 0.981 | 0.932 | 0.903 | 0.941 | 1.01 | 0.873 | 0.72 | 0.849 | 0.812 | 0.8 |
| SK-LU-1 | 0.722 | 0.637 | 1.07 | 0.948 | 0.036 | 0.751 | 1.06 | 1.31 | 1.06 | 1.06 | 0.491 | 0.403 | 0.516 | 0.506 | 0.719 | 0.969 | 0.797 | 0.69 |
